Assay results published in ChEMBL document CHEMBL1201862, “PubChem BioAssay data set” (2004).
The source made the active and inactive calls.

Key:
[1] = target: 5-hydroxytryptamine receptor 1A (Homo sapiens, UniProt P08908); format: functional
[2] = target: Melanin-concentrating hormone receptor 1 (Homo sapiens, UniProt Q99705); assay: Late-stage fluorescence-based counterscreen for antagonists of the G-protein coupled receptor 7 (GPR7): cell-based dose response assay to identify antagonists of the melanin-concentrating hormone receptor 1 (MCHR1). [Related pubchem assays (depositor defined):AID1861, AID1880, AID1952, AID2148, AID2251, AID2257, AID485339]; format: functional;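 further: stimulated with 30 nM MCH peptide agonist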
[3] = viability of uninfected HEp-2 cells – cell-based, HTS, cytotoxicity control for RSV inhibitor project, dose response (AID 2410); format: functional; settings: human respiratory syncytial virus
[4] = alpha-synuclein stem-loop luciferase translation blockers – H4 neuroglioma cells, luminescence, confirmation (AID 1988); format: functional, cell-based
[5] = cells
[6] = luciferase reporter signal suppression in cells – H4 neuroglioma cells, luminescence, dose response (AID 1990); format: functional, cell-based
[7] = Luminescence Cell-Based Dose Response HTS to Identify Inhibitors of 5'UTR Stem-Loop Driven Prion Protein mRNA Translation in H4 Neuroglioblastoma Cells. [Related pubchem assays: 1827 (Project Summary), 1813 (Primary HTS)]; format: functional
[8] = target: Acyl-homoserine lactone acylase PvdQ (Pseudomonas aeruginosa (strain LESB58), UniProt Q9I194); assay: PvdQ acylase enzyme activity blockers – biochemical, fluorescence, plate reader and imaging, cherry-picks, dose response (AID 493231)
[9] = A cytotoxicity screen of small molecule inhibitors of the PhoP region in Salmonella typhi identified in the primary screen. [Related pubchem assays: 1850, 1864, 1985 ]; format: functional
[10] = target: T1, Estrogen receptor (Homo sapiens, UniProt P03372); assay: ERα coactivator recruitment enhancers – biochemical, TR-FRET, ERα LBD, dose response (AID 737)
T1 sequence (P03372 whole entry): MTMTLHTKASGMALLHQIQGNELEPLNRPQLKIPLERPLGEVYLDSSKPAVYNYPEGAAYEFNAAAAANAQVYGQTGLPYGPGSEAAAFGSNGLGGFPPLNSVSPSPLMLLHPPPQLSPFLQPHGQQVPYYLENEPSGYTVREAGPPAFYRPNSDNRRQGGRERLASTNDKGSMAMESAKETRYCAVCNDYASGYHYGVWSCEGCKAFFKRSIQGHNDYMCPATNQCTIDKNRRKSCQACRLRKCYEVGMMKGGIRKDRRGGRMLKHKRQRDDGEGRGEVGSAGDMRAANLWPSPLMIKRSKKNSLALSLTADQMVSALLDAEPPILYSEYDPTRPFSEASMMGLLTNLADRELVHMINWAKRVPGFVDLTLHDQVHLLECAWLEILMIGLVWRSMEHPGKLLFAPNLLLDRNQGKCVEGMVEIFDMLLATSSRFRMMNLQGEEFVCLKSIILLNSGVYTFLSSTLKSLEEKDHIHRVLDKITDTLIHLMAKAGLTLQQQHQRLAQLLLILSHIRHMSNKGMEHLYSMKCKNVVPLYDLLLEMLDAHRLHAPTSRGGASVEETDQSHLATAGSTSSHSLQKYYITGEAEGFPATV

[11] = mitochondrial function rescue without frataxin homolog – Friedreich's ataxia, plus single-dose screen, dose response (AID 1465); format: functional;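 further: yeast depleted of Yfh1p frataxin homolog grown on glycerol needing respiration; WST-1 tetrazolium dye reduction as measure of cellular dehydrogenase metabolic activity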
[12] = target: T2, Carboxy-terminal domain RNA polymerase II polypeptide A small phosphatase 1 (Homo sapiens, UniProt Q9GZU7); assay: CTDSP1 inhibitors, concentration-response, biochemical, absorbance readout, ultra-high-throughput screen actives (AID 540297); format: functional
T2 sequence (Q9GZU7 whole entry): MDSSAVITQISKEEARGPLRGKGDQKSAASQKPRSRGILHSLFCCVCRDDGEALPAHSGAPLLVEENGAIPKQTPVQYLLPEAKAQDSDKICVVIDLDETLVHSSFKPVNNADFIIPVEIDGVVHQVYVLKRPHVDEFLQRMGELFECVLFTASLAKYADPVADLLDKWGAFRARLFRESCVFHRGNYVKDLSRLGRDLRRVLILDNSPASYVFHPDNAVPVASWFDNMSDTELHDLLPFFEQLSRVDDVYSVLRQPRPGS

[13] = target: Estrogen receptor beta (Homo sapiens, UniProt Q92731); assay: blockers of SRC-3 recruitment to ERβ – biochemical, ELISA, streptavidin-HRP readout, orthogonal assay, confirmation (AID 1060)
[14] = test system: HEK293; assay: cells; settings: Homo sapiens;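 further: cells exposed to compound for 14 hours overnight before viability readout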
[15] = target: Tumor necrosis factor (Homo sapiens, UniProt P01375); assay: analog potency on TNFa NF-kB signaling – cell-based, revised, SAR follow-up (AID 2337); format: functional
[16] = target: Nucleotide-binding oligomerization domain-containing protein 2 (Homo sapiens, UniProt Q9HC29); assay: PubChem AID 2334; format: functional
[17] = target: T3, Nucleotide-binding oligomerization domain-containing protein 1 (Homo sapiens, UniProt Q9Y239); assay: blockers of NOD1 pathway activity – revised, SAR follow-up (AID 2333); format: functional
T3 sequence (Q9Y239 whole entry): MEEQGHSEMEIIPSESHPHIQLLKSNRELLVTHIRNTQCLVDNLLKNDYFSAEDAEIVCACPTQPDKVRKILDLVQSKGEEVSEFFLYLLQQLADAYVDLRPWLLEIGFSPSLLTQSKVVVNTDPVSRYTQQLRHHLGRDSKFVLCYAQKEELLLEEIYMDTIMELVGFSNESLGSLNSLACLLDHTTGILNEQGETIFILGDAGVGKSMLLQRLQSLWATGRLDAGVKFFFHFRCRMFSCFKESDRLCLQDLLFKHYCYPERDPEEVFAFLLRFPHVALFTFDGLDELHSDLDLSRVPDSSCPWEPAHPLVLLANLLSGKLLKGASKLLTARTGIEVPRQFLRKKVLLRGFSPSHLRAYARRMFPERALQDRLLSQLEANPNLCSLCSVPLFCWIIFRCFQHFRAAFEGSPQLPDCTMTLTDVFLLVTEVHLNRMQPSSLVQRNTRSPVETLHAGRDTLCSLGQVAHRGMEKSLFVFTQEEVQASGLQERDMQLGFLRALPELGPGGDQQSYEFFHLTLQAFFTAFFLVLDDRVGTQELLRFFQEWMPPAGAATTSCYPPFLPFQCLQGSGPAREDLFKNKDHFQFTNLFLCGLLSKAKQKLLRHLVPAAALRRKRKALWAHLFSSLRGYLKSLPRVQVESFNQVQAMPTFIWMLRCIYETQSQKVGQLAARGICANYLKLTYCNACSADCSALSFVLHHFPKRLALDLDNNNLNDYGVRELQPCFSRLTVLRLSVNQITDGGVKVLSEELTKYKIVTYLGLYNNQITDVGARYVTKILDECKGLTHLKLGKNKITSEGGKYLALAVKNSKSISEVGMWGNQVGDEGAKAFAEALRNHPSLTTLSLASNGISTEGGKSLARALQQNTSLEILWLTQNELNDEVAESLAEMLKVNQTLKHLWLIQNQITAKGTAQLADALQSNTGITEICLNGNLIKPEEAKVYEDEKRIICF

[18] = target: Cytochrome P450 3A4 (Homo sapiens, UniProt P08684); settings: Potency;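 further: confirmatory qHTS run detecting inhibitors and substrates of CYP3A4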
[19] = target: Cytochrome P450 2C9 (Homo sapiens, UniProt P11712); settings: Potency
[20] = test system: HeLa; assay: viability loss in HeLa cells – cell-based, 24 h, cherry-picked samples, cytotoxicity control, dose response (AID 504726); format: functional; settings: Homo sapiens;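 further: potency for cytotoxicity as loss of luminescence signal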
[21] = target: Prothrombin (Homo sapiens, UniProt P00734); assay: Thrombin 1536 HTS Dose Response Confirmation. [Related pubchem assays: 1046 (Thrombin 1536 HTS; hits were confirmed in this assay)]; format: functional
[22] = target: T4, Coagulation factor XII (Homo sapiens, UniProt P00748); format: functional;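 further: activated factor XIIa alpha cleaving a fluorogenic AMC peptide substrate; inhibitor potency from loss of enzyme activity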
T4 sequence (P00748 whole entry): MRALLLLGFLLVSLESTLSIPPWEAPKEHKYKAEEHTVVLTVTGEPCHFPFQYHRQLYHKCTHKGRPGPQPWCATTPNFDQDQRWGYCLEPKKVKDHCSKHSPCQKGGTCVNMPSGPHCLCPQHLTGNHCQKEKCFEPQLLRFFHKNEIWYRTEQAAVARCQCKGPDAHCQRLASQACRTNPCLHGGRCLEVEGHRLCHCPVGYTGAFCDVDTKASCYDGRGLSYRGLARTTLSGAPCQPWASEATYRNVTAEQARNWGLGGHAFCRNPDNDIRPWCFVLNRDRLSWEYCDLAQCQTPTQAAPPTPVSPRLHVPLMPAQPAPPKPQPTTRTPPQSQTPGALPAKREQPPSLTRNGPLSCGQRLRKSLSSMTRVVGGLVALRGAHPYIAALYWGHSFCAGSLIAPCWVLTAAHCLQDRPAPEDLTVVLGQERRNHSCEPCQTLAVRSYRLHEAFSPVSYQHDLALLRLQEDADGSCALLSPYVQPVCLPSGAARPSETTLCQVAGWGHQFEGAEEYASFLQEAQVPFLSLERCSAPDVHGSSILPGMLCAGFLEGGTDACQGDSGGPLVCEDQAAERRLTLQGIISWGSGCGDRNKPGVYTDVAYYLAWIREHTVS

[23] = target: T5, Short transient receptor potential channel 4 (Mus musculus, UniProt Q9QUQ5); assay: block of DAMGO-driven TRPC4 calcium entry – cell-based, HEK293 TRPC4/mu-opioid, Fluo-4 calcium, dose response (AID 434942); format: functional;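 further: potency of inhibitors blocking the TRPC4 calcium response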
T5 sequence (Q9QUQ5 whole entry): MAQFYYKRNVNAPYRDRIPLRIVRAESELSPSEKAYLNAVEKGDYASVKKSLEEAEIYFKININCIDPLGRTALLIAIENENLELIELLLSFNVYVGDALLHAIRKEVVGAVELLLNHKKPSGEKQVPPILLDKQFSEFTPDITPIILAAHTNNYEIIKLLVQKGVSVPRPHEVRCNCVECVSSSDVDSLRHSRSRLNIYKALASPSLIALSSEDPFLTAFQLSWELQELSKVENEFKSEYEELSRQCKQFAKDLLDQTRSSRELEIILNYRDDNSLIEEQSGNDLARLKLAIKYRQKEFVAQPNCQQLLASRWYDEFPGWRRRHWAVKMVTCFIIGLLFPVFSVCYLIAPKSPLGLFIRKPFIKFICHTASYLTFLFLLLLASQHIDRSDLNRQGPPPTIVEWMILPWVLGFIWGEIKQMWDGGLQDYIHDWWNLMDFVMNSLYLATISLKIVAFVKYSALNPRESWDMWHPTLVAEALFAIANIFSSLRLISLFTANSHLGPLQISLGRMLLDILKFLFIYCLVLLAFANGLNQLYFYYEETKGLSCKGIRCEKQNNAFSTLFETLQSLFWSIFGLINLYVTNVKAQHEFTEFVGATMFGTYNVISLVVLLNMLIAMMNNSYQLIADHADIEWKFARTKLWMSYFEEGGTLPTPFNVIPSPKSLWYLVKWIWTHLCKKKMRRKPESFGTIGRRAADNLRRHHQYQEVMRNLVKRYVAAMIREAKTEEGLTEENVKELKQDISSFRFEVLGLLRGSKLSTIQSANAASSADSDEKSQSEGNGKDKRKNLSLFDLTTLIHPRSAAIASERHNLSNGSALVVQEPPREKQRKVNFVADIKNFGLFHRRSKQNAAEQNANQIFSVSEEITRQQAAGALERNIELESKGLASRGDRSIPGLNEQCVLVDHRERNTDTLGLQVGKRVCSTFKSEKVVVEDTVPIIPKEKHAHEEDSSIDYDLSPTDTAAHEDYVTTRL

[24] = M. tuberculosis H37Rv growth inhibitors, H37Rv strain (AID 1626); format: functional
[25] = target: Induced myeloid leukemia cell differentiation protein Mcl-1 (Homo sapiens, UniProt Q07820); format: functional
Chain of Induced myeloid leukemia cell differentiation protein Mcl-1 (Q07820 whole entry): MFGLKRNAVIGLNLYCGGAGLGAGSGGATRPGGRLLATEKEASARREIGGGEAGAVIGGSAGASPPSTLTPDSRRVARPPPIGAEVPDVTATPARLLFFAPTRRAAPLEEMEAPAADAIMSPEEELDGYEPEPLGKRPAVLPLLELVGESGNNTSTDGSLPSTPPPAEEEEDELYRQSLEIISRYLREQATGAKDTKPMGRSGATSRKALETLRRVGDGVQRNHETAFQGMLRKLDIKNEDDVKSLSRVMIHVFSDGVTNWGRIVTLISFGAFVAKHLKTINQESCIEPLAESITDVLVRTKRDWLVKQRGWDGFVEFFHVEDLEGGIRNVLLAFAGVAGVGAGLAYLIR

Chain of Acyl-homoserine lactone acylase PvdQ (Q9I194 24-193 limits assumed): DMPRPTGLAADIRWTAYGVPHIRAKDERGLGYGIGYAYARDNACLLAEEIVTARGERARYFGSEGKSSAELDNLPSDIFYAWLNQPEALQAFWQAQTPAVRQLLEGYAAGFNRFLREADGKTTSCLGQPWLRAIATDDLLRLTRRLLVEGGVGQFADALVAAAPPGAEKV
Chain of Acyl-homoserine lactone acylase PvdQ (Q9I194 217-762 limits assumed): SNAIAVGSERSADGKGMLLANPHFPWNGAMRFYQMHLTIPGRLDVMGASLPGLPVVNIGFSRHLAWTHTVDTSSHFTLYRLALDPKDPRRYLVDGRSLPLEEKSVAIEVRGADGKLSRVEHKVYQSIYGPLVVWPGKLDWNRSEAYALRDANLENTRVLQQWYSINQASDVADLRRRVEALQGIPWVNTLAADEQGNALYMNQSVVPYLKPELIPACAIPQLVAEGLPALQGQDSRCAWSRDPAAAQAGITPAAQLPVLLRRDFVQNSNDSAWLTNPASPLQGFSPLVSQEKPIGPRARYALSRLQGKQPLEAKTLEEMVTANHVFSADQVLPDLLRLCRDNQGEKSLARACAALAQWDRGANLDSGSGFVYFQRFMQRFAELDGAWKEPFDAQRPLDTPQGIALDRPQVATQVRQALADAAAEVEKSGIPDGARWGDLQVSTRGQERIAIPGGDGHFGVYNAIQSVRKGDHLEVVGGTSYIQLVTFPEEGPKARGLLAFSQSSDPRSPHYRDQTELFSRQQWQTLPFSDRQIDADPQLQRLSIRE
Chain of Estrogen receptor beta (Q92731 whole entry): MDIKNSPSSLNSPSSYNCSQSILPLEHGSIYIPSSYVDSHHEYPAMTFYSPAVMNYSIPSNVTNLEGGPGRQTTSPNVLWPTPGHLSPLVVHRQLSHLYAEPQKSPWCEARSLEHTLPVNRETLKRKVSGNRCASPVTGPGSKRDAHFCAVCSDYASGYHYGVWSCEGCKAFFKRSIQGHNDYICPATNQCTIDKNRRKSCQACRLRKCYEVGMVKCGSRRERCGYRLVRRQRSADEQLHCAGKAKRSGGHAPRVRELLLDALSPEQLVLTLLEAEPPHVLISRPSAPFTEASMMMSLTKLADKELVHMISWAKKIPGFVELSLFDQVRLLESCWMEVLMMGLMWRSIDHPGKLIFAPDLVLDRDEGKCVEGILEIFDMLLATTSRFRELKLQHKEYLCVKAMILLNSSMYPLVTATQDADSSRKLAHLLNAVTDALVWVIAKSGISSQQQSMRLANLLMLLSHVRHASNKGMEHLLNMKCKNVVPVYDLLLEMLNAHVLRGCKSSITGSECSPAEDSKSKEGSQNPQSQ
Chain of 5-hydroxytryptamine receptor 1A (P08908 whole entry): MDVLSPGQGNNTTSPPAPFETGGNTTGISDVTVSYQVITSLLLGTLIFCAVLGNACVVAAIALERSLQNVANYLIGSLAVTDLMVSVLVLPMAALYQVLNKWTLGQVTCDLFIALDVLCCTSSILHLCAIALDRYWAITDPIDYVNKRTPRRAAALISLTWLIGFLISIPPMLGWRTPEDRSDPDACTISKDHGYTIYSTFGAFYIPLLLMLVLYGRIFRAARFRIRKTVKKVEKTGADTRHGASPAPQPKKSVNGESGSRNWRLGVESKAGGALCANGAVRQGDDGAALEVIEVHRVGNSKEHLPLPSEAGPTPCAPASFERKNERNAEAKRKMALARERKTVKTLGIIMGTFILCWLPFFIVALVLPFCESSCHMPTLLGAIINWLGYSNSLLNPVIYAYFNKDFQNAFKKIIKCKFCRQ
Chain of Melanin-concentrating hormone receptor 1 (Q99705 whole entry): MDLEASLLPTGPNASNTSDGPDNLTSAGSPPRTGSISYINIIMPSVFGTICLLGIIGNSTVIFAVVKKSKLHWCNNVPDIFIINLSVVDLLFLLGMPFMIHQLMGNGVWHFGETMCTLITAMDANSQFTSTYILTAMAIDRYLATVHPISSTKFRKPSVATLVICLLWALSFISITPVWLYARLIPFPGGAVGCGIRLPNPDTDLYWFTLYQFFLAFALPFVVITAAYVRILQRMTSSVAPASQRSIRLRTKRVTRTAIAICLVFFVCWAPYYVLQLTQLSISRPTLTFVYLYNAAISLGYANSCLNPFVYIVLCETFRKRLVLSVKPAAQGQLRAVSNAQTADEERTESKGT
Chain of Tumor necrosis factor (P01375 whole entry, the tested form may be a part): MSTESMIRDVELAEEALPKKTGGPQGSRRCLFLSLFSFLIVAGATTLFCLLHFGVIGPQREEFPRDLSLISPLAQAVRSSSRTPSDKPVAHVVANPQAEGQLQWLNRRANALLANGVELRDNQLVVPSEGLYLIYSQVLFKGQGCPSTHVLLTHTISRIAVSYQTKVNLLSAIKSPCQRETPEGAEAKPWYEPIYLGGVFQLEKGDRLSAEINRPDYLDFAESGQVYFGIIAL
Chain of Cytochrome P450 2C9 (P11712 whole entry): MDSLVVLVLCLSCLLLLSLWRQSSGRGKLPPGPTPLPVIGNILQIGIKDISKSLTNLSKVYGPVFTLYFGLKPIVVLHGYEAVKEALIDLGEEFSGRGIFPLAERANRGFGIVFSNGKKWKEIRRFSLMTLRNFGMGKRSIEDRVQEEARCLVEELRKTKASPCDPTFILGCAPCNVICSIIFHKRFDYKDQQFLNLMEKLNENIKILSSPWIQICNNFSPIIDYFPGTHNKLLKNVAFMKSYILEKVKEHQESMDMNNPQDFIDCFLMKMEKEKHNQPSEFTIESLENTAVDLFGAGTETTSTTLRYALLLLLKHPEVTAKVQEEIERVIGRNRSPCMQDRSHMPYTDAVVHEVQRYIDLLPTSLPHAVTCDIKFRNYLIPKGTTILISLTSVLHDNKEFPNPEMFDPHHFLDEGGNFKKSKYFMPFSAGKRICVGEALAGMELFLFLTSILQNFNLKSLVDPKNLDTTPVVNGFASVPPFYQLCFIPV
Chain of Nucleotide-binding oligomerization domain-containing protein 2 (Q9HC29 whole entry, the tested form may be a part): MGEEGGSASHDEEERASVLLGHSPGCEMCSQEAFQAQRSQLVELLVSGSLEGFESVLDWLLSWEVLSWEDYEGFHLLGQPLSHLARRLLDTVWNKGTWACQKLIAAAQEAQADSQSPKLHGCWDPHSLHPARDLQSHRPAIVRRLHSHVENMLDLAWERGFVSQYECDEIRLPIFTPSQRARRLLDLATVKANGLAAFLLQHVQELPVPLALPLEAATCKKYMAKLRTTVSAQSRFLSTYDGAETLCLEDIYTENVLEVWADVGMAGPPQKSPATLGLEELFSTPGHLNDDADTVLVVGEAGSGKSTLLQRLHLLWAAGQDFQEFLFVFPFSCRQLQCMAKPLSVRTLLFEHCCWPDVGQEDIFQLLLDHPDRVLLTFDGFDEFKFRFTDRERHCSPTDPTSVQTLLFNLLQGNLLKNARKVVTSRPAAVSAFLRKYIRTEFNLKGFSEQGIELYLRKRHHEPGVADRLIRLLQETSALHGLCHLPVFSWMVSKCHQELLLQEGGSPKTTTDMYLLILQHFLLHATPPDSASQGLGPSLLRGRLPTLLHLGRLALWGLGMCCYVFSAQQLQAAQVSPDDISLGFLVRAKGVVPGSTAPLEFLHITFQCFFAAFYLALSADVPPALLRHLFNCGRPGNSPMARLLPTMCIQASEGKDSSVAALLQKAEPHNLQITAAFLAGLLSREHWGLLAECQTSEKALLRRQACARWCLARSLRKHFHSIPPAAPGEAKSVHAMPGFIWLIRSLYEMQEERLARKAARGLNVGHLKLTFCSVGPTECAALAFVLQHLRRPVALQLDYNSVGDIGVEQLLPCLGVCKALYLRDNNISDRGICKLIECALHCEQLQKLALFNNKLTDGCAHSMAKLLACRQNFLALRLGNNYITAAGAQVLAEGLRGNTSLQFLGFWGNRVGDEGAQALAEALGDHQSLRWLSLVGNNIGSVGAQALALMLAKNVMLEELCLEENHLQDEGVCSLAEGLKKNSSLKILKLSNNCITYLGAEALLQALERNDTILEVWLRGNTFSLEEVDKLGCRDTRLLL
Chain of Cytochrome P450 3A4 (P08684 whole entry): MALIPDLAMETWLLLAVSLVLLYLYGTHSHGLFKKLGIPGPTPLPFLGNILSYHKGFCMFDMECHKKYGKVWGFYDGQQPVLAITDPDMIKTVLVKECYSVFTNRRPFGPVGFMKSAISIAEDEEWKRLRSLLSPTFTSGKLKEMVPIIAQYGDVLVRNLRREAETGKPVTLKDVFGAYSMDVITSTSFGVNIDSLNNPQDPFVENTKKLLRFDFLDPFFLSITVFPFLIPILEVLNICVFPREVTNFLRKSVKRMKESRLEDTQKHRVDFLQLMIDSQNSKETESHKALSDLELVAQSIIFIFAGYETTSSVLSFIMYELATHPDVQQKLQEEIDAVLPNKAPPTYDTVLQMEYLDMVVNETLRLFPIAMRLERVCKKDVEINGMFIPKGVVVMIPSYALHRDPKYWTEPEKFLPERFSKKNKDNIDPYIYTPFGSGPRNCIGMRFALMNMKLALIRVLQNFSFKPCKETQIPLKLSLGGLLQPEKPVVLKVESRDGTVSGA

Compound: CC(=O)Nc1ccc(S(=O)(=O)N(C)c2ccc(O)cc2)cc1
- EC50 [1]: > 50 µM (not active)

Compound: COc1ccc(Oc2c(Cl)cnn(-c3ccc4c(c3)CCCC4)c2=O)cc1
- IC50 [2]: 2.1 µM (active)

Compound: O=C(c1cc2nc(-c3ccccc3)cc(-c3ccccc3)n2n1)N1CCC2(CC1)OCCO2
- CC50 [3]: 28.9 µM (active)
- EC50 [4]: 115 µM (active)
- IC50 [5]: 3.6 µM (active)
- EC50 [6]: 24.2 µM (active)
- EC50 [7]: 12.9 µM (active)

Compound: N#Cc1cn(Cc2ccccc2)c2ccccc12
- AC50 [8]: 45 µM (active)

Compound: CCC(C)(C)NC(=O)c1cc([N+](=O)[O-])ccc1N1CCCCC1
- AC50 [8]: 13.7 µM (active)

Compound: COc1ccccc1Nc1cc(C(=O)NCc2cccnc2)c2ccccc2n1
- EC50 [9]: > 50 µM (active)

Compound: O=C(Cc1ccccc1)Nc1ccc2oc(-c3cccnc3)nc2c1
- EC50 [10]: 21.2 µM (active)

Compound: CC(C(=O)O)N1C(=O)/C(=C/c2cccn2C)SC1=S (stereo not given)
- EC50 [11]: > 100 µM (active)

Compound: N#CC1=C(N)n2c(s/c(=C\c3ccco3)c2=O)=C(C#N)C1c1ccco1 (stereo not given)
- IC50 [12]: 3.44 µM (active)
- IC50 [13]: 1.92 µM (not active)

Compound: CCOC(=O)c1c(NC(=O)c2cccs2)sc2c1CC(C)(C)OC2
- IC50 [14]: > 20 µM (inactive)
- IC50 [15]: > 20 µM (inactive)
- IC50 [16]: > 20 µM (inactive)
- IC50 [17]: > 20 µM (inactive)

Compound: CCCCCC(=O)c1cc(CC(C(=O)OC)C(=O)OC)cc2cc(OC)c(OC)cc12
- AC50 [18]: 3.98 µM (inconclusive)
- AC50 [19]: 3.16 µM (inconclusive)

Compound: Cc1cccc(N(Cc2ccccc2)C(=O)C2CCN(C(=O)c3ccccc3C)CC2)c1
- AC50 [20]: 135 µM (active)

Compound: COc1cccc(NC(=S)Nc2ccc(Br)cc2Cl)c1
- IC50 [21]: > 50 µM (not active)
- IC50 [22]: > 50 µM (inactive)

Compound: Clc1ccc(CN2C3=NCCN3c3ccccc32)cc1
- EC50 [9]: > 50 µM (active)
- EC50 [23]: 1.5 µM (active)

Compound: CC(C)c1ccc(-n2ncc(Cl)c(NCc3ccccc3)c2=O)cc1
- IC50 [2]: 6.9 µM (active)

Compound: COc1ccc2nc(O)c(CN(C(=O)NC3CCCCC3)C3CCCCC3)cc2c1
- IC50 [24]: > 100 µM (active)

Compound: COc1ccc(-c2cn3c(C)c(C(=O)Nc4ccncc4)sc3n2)cc1
- EC50 [10]: 18.9 µM (active)

Compound: NC(=S)N/N=C/c1ccc(-c2ccc([N+](=O)[O-])cc2)o1
- AC50 [20]: 84.6 µM (active)

Compound: COC(=O)C1=C(C)N(Cc2ccccc2)C(=O)N[C@H]1c1ccccc1
- CC50 [3]: 33.9 µM (active)
- IC50 [5]: 5.02 µM (active)

Compound: CC(C)Cn1c(N)c(C(=O)COC(=O)c2cc(-c3ccco3)nc3ccccc23)c(=O)n(C)c1=O
- IC50 [13]: > 50 µM (not active)
- IC50 [25]: 2.59 µM (active)

Compound: Cc1cccc(Oc2ccc(N)cc2)c1
- IC50 [24]: > 100 µM (active)

Compound: NCCc1c[nH]c2ccc(F)cc12
- EC50 [1]: 2.22 µM (active)
